Key:
Galectin-1 = Galectin-1 (Homo sapiens, UniProt P09382); experiment: Binding affinity to human galectin-1 using 3,3'-dideoxy-3-[4-(fluorescein-5-yl-carbonylaminomethyl)-1H-1,2,3-triazol-1-y1]-3'.(3,5-dimethoxy-benzamido)-1,1'-sulfanediyl-di-beta-D-galactopyranoside as fluorescent probe by fluorescence polarization analysis
[1] = biological target: T1, Galectin-8 (Homo sapiens) (UniProt O00214); experiment: Antagonist activity against human galectin-8N assessed as inhibition of galectin-8N at 2 mM by fluorescence polarization analysis relative to control
T1 sequence (whole entry): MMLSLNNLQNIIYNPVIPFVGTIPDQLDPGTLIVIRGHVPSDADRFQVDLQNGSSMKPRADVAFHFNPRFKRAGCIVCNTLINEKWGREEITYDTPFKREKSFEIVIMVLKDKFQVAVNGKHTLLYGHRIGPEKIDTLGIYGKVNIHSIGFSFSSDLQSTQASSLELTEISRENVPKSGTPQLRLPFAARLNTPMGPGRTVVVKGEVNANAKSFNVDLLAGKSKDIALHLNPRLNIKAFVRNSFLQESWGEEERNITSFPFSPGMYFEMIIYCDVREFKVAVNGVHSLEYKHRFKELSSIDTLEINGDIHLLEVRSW

Galectin-4 [2] = biological target: T2, Galectin-4 (Homo sapiens, UniProt P56470); experiment: Binding affinity to human galectin-4N expressed in Escherichia coli BL21 using 3,3'-dideoxy-3-[4-(fluorescein-5-yl-carbonylaminomethyl)-1H-1,2,3-triazol-1-y1]-3'-(3,5-dimethoxy-benzamido)-1,1'-sulfanediyl-di-beta-D-galactopyranoside as fluorescent probe by fluorescence polarization analysis
T2 sequence (P56470 whole entry): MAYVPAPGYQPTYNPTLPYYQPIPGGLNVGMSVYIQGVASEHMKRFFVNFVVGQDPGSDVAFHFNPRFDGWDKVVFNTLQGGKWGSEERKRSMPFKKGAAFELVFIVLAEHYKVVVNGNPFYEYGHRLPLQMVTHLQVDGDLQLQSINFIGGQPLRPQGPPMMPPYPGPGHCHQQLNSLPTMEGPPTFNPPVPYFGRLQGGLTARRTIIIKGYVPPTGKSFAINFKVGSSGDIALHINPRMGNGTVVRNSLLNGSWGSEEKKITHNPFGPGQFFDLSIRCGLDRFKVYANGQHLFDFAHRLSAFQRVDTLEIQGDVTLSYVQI

LAX40 [3] = experiment: Cytotoxicity against human LAX40 patient-derived BCP-ALL cells co-cultured with irradiated OP9 stromal cells assessed as reduction in cell viability at 100 uM for 1 to 3 days by trypan blue staining based assay; format: functional; settings: time 1-3 day, TDE = time-dependent effect
Galectin-4 [4] = biological target: T2, Galectin-4
LAX40 [5] = experiment: Cytostatic activity against human LAX40 patient-derived BCP-ALL cells co-cultured with irradiated OP9 stromal cells assessed as reduction in cell viability at 100 uM for 1 to 3 days by trypan blue staining based assay; format: functional; settings: time 1-3 day, TDE = time-dependent effect
[6] = Cytotoxicity against human US7 patient-derived BCP-ALL cells co-cultured with irradiated OP9 stromal cells assessed as reduction in cell viability incubated for 24 hrs by Alamar blue assay; format: functional, cell-based; settings: US7, light or radiation study
Galectin-8 [7] = biological target: T3, Galectin-8 (Homo sapiens, UniProt O00214); experiment: Binding affinity to human galectin-8C expressed in Escherichia coli BL21(DE3) using 3,3'-dideoxy-3-[4-(fluorescein-5-yl-carbonylaminomethyl)-1H-1,2,3-triazol-1-y1]-3'-(3,5-dimethoxy-benzamido)-1,1'-sulfanediyl-di-beta-D-galactopyranoside as fluorescent probe by fluorescence polarization analysis
T3 sequence (O00214 whole entry): T1 sequence (whole entry)

Galectin-8 [8] = biological target: T3, Galectin-8; experiment: Binding affinity to human galectin-8N using 3,3'-dideoxy-3-[4-(fluorescein-5-yl-carbonylaminomethyl)-1H-1,2,3-triazol-1-y1]-3'.(3,5-dimethoxy-benzamido)-1,1'-sulfanediyl-di-beta-D-galactopyranoside as fluorescent probe by fluorescence polarization analysis
[9] = Binding affinity to human galectin-1 C3S mutant by fluorescence polarization analysis
TXL2 = experiment: Induction of cell death in human TXL2 patient-derived BCP-ALL cells assessed as reduction in viable cells at 0.5 to 800 uM incubated for 24 hrs by Alamar blue assay; format: functional, cell-based; settings: dose 0.5-800 µM, DDE = dose-dependent effect
US7 = experiment: Induction of cell death in human US7 patient-derived BCP-ALL cells assessed as reduction in viable cells at 0.5 to 800 uM incubated for 24 hrs by Alamar blue assay; format: functional, cell-based; settings: dose 0.5-800 µM, DDE = dose-dependent effect
[10] = Cytotoxicity against mouse bone marrow-derived stromal OP9 cells assessed as live cells at 100 uM measured after 3 days by trypan blue staining based assay relative to control; format: toxicity, cell-based; settings: time 3 day, read-out: Activity
Galectin-3 = Galectin-3 (Homo sapiens, UniProt P17931)
Sequence of Galectin-3 (P17931 whole entry): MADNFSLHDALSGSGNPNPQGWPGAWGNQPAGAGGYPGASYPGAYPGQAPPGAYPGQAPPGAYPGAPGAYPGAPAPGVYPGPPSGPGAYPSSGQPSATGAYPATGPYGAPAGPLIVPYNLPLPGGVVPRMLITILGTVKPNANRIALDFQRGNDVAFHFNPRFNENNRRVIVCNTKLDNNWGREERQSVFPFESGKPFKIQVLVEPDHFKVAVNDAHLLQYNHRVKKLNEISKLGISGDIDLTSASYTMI
Description: Binding affinity to human galectin-3 using 2-(fluorescein-5/6-yl-carbonylamino)-ethyl 2-acetamido-2-deoxy-alpha-D-galactopyranosyl-(1-3)-[alpha-L-fucopyranosyl-(1-2)]-beta-D-galactopyranosyl-(1-4)-beta-D-glucopyranoside by fluorescence polarization analysis

[11] = biological target: T4, Galectin-4 (Homo sapiens) (UniProt P56470); experiment: Antagonist activity against human galectin-4N expressed in Escherichia coli BL21 assessed as inhibition of galectin-4N at 2 mM using 3,3'-dideoxy-3-[4-(fluorescein-5-yl-carbonylaminomethyl)-1H-1,2,3-triazol-1-y1]-3'-(3,5-dimethoxy-benzamido)-1,1'-sulfanediyl-di-beta-D-galactopyranoside as fluorescent probe by fluorescence polarization analysis relative to control
T4 sequence (whole entry): T2 sequence (P56470 whole entry)

Sequence of Galectin-1 (P09382 whole entry): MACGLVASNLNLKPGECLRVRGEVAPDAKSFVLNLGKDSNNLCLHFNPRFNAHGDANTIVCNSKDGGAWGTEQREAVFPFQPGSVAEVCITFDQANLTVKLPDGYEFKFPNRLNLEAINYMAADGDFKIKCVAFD

CO[C@@H]1O[C@H](CO)[C@H](O)[C@H](OC(=O)c2ccc(C)cc2)[C@@H]1OC(=O)c1ccc(C(F)(F)F)cc1[N+](=O)[O-]
Kd (Galectin-1): 4000 µM | inhibition [1]: < 20% | Kd (Galectin-4 [2]): 1400 µM | Activity (LAX40 [3]): Tde | Kd (Galectin-4 [4]): 40 µM | Activity (LAX40 [5]): Tde | IC50 [6]: 83 µM | Kd (Galectin-8 [7]): 1900 µM

CO[C@@H]1O[C@H](CO)[C@H](O)[C@H](OC(=O)c2ccc(C)cc2)[C@@H]1OC(=O)c1ccc(Cl)cc1[N+](=O)[O-]
Kd (Galectin-1): 1400 µM | Kd (Galectin-4 [2]): 250 µM | Kd (Galectin-8 [8]): 4000 µM | Kd (Galectin-4 [4]): 18 µM | IC50 [6]: 128 µM | Kd (Galectin-8 [7]): 450 µM

CO[C@@H]1O[C@H](CO)[C@H](O)[C@H](OC(=O)c2ccc(C)cc2)[C@@H]1OC(=O)c1ccc(F)cc1[N+](=O)[O-]
Kd (Galectin-1): 2100 µM | inhibition [1]: < 20% | Kd (Galectin-4 [2]): 710 µM | Kd (Galectin-4 [4]): 6.5 µM | IC50 [6]: 150 µM | Kd (Galectin-8 [7]): 900 µM

CO[C@@H]1O[C@H](CO)[C@H](O)[C@H](OC(=O)c2ccc(C)cc2)[C@@H]1OC(=O)c1ccccc1[N+](=O)[O-]
Kd [9]: 1800 µM | Activity (TXL2): Dde | Activity (US7): Dde | inhibition [1]: < 20% | Kd (Galectin-4 [2]): 440 µM | Activity (LAX40 [3]): Tde | Kd (Galectin-4 [4]): 48 µM | Activity (LAX40 [5]): Tde | IC50 [6]: 307 µM | viability at 72 h, 100 µM [10]: ≥ 65%

CO[C@@H]1O[C@H](CO)[C@H](O)[C@H](OC(=O)c2ccc(C)cc2)[C@@H]1OC(=O)c1cccc([N+](=O)[O-])c1
Kd (Galectin-1): 2700 µM | inhibition [1]: < 20% | Kd (Galectin-4 [2]): 1400 µM | Kd (Galectin-3): 130 µM | Kd (Galectin-4 [4]): 630 µM | IC50 [6]: 138 µM | Kd (Galectin-8 [7]): 4000 µM

CO[C@@H]1O[C@H](CO)[C@H](O)[C@H](OC(=O)c2ccc(C)cc2)[C@@H]1OC(C)=O
Kd (Galectin-1): 4100 µM | inhibition [1]: < 20% | inhibition [11]: < 20% | Kd (Galectin-3): 420 µM | Kd (Galectin-4 [4]): 2900 µM

From ChEMBL document CHEMBL5154868, “Novel Selective Galectin-3 Antagonists Are Cytotoxic to Acute Lymphoblastic Leukemia” (J Med Chem, 2022)
